Test results as given in ChEMBL document CHEMBL1146819, “Synthesis and SAR of 2-arylbenzoxazoles, benzothiazoles and benzimidazoles as inhibitors of lysophosphatidic acid acyltransferase-beta” (Bioorg Med Chem Lett, 2004).
Calls of active or inactive are those of the source.

What was measured:
[1] = molecular target: T1, 1-acyl-sn-glycerol-3-phosphate acyltransferase alpha (Homo sapiens) (UniProt Q99943); experiment: Inhibitory activity against human lysophosphatidic acid acyltransferase-alpha (LPAAT-alpha) expressed in Sf9 insect cell membranes at <20 uM; Not active
T1 sequence (whole entry): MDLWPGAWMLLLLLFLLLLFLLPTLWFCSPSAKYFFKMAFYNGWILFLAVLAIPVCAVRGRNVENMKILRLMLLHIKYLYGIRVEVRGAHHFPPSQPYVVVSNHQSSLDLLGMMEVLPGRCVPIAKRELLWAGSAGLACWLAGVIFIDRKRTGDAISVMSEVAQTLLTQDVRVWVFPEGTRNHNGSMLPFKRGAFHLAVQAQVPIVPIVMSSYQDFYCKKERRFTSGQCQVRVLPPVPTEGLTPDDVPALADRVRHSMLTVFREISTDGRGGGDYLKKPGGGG

[2] = molecular target: T2, 1-acyl-sn-glycerol-3-phosphate acyltransferase beta (Homo sapiens, UniProt O15120); experiment: Inhibitory concentration against human lysophosphatidic acid acyltransferase-beta (LPAAT-beta) expressed in Sf9 insect cell membranes
T2 sequence (O15120 whole entry): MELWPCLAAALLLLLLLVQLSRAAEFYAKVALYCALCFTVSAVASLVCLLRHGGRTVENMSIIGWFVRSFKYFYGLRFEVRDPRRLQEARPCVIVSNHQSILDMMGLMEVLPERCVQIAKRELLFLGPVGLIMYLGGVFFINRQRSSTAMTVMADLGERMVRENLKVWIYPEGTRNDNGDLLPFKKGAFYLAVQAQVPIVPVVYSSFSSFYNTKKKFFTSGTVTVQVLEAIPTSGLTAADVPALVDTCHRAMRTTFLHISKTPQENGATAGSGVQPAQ

[3] = tested on: DU-145; experiment: In vitro inhibitory concentration of compound against proliferation of DU145 prostate carcinoma cells; type: functional, cell-based; details: Homo sapiens
[4] = tested on: MCF7; experiment: In vitro inhibitory concentration of compound against proliferation of MCF-7 breast carcinoma cells; type: functional, cell-based; details: Homo sapiens
[5] = tested on: MCF7; experiment: In vitro inhibitory concentration of compound against proliferation of MCF-7 breast carcinoma cells; Range is 30-40 uM; type: functional, cell-based; details: Homo sapiens

Row | Activity [1] | IC50 [2] | IC50 [3] | IC50 [4] | IC50 [5] | Structure (SMILES)
1 | inactive | 0.1 µM |  |  |  | Cc1ccc2oc(-c3cc(NC(=O)CC#N)ccc3Cl)nc2c1
2 | inactive | 1.4 µM |  |  |  | C=CCOC(=O)Nc1ccc(Cl)c(-c2nc3cc(C)ccc3o2)c1
3 | inactive |  |  |  |  | COC(=O)Nc1ccc(C)c(-c2nc3cc(C)ccc3o2)c1
4 | inactive | > 20 µM |  |  |  | CC#CC(=O)Nc1ccc(Cl)c(-c2nc3cc(C)ccc3o2)c1
5 | inactive | 31 µM |  |  |  | Cc1ccc2oc(-c3cc(NC(=O)CO)ccc3Cl)nc2c1
6 | inactive | 16 µM |  |  |  | Cc1ccc2oc(-c3cc(NC(=O)OC(C)C)ccc3Cl)nc2c1
7 | inactive | 40 µM |  |  |  | Cc1ccc2oc(-c3cc(NC(=O)c4ccccc4)ccc3Cl)nc2c1
8 | inactive | > 20 µM |  |  |  | CC#CC(=O)Nc1ccc(Cl)c(-c2nc3cc(Cl)ccc3o2)c1
9 | inactive |  |  |  |  | C#CCOC(=O)Nc1ccc(Cl)c(-c2nc3cc(C)ccc3o2)c1
10 | inactive | 0.6 µM |  |  |  | Cc1ccc2oc(-c3cc(NC(=O)CN=[N+]=[N-])ccc3Cl)nc2c1
11 | inactive | 0.4 µM |  |  |  | COC(=O)Nc1ccc(Cl)c(-c2nc3ccc(C)cc3o2)c1
12 | inactive | 1.5 µM | 40 µM | 40 µM |  | CCC(=O)Nc1ccc(Cl)c(-c2nc3cc(C)ccc3o2)c1
13 | inactive |  |  |  |  | COC(=O)Nc1ccc(Cl)c(-c2nc3cc(Cl)ccc3o2)c1
14 | inactive | 1.5 µM |  |  |  | CCOC(=O)Nc1ccc(Cl)c(-c2nc3cc(C)ccc3o2)c1
15 | inactive | 0.5 µM |  |  |  | C#CCCC(=O)Nc1ccc(Cl)c(-c2nc3cc(C)ccc3o2)c1
16 | inactive | 0.95 µM |  |  |  | CNC(=O)Nc1ccc(Cl)c(-c2nc3cc(Cl)ccc3o2)c1
17 | inactive | 2.5 µM |  |  |  | CCCC(=O)Nc1ccc(Cl)c(-c2nc3cc(C)ccc3o2)c1
18 |  | > 5 µM |  |  |  | Cc1ccc2oc(-c3cc(NCCCC#N)ccc3Cl)nc2c1
19 | inactive | 2.5 µM |  |  |  | CC(=O)Nc1ccc(Cl)c(-c2nc3cc(C)ccc3o2)c1
20 | inactive | > 20 µM |  |  |  | COC(=O)Nc1ccc(Cl)c(-c2nc3cc(C(=O)O)ccc3o2)c1
21 | inactive | 64 µM |  |  |  | COC(=O)Nc1ccc(Cl)c(-c2nc3cc(-c4ccccc4)ccc3o2)c1
22 | inactive | 1 µM |  |  |  | COC(=O)Nc1ccc(Cl)c(-c2nc3cc(C)ccc3o2)c1
23 | inactive | > 5 µM |  |  |  | Cc1ccc2oc(-c3cc(NC=O)ccc3Cl)nc2c1
24 | inactive | 12 µM |  |  |  | CCCOC(=O)Nc1ccc(Cl)c(-c2nc3cc(C)ccc3o2)c1
25 | inactive |  | 50 µM | 20 µM |  | C#CCOC(=O)Nc1ccc(Cl)c(-c2nc3ccccc3o2)c1
26 | inactive | > 64 µM |  |  |  | COC(=O)Nc1ccc(F)c(-c2nc3cc(C)ccc3o2)c1
27 | inactive | > 5 µM |  |  |  | CNCC(=O)Nc1ccc(Cl)c(-c2nc3cc(Cl)ccc3o2)c1
28 | inactive |  |  |  |  | COC(=O)Nc1ccc(Cl)c(-c2nc3ccccc3o2)c1
29 | inactive | > 20 µM |  |  |  | COC(=O)Nc1ccc(Cl)c(-c2nc3cc(O)ccc3o2)c1
30 | inactive | 0.027 µM |  |  |  | N#CCC(=O)Nc1ccc(Cl)c(-c2nc3cc(Cl)ccc3o2)c1

More lines, now with the values behind:

Row | Structure (SMILES) | Activity [1] | IC50 [2] | IC50 [3] | IC50 [4] | IC50 [5]
31 | COC(=O)Nc1ccc(Cl)c(-c2nc3cc(C)ccc3n2C)c1 | inactive | 11 µM |  |  | 
32 | COC(=O)Nc1ccc(Cl)c(-c2nc3cc(C(F)(F)F)ccc3s2)c1 | inactive |  |  |  | 
33 | COC(=O)Nc1ccc(Cl)c(-c2nc3cc(Cl)ccc3s2)c1 | inactive |  |  |  | 
34 | COC(=O)Nc1ccc(Cl)c(-c2nc3cc(C(F)(F)F)ccc3o2)c1 | inactive | 0.8 µM |  |  | 
35 | C#CCOC(=O)Nc1ccc(C)c(-c2nc3cc(Cl)ccc3o2)c1 | inactive | 0.1 µM |  |  | 
36 | C#CCOC(=O)Nc1ccc(C)c(-c2nc3cc(Cl)ccc3s2)c1 | inactive | 0.015 µM |  |  | 
37 | C#CCCC(=O)Nc1ccc(Cl)c(-c2nc3cc(Cl)ccc3o2)c1 | inactive | 0.1 µM |  |  | 
38 | COC(=O)Nc1ccc(Cl)c(-c2nc3cc(Cl)ccc3n2C)c1 | inactive | 0.65 µM |  |  | 
39 | C#CCCOC(=O)Nc1ccc(Cl)c(-c2nc3cc(Cl)ccc3o2)c1 | inactive | 0.075 µM |  |  | 
40 | Cc1ccc(NC(=O)CC#N)cc1-c1nc2ccccc2s1 | inactive | 0.07 µM |  |  | 
41 | COC(=O)Nc1ccc(Cl)c(-c2nc3ccc(C)cc3s2)c1 | inactive | > 64 µM |  |  | 
42 | C#CCOC(=O)Nc1ccc(Cl)c(-c2nc3cc(C(F)(F)F)ccc3o2)c1 | inactive |  |  |  | 
43 | N#CCC(=O)Nc1ccc(Cl)c(-c2nc3cc(C(F)(F)F)ccc3s2)c1 | inactive | 0.05 µM |  |  | 
44 | COC(=O)Nc1ccc(Cl)c(-c2nc3c(C)cccc3s2)c1 | inactive | 9 µM |  |  | 
45 | C#CCNC(=O)Nc1ccc(Cl)c(-c2nc3cc(Cl)ccc3o2)c1 | inactive | 0.1 µM |  |  | 
46 | Cn1c(-c2cc(NC(=O)CC#N)ccc2Cl)nc2cc(Cl)ccc21 | inactive | 0.3 µM |  |  | 
47 | C#CCOC(=O)Nc1ccc(Cl)c(-c2nc3cc(Cl)ccc3n2C)c1 | inactive |  |  |  | 

Row | Structure (SMILES) | Activity [1] | IC50 [2] | IC50 [3] | IC50 [4] | IC50 [5]
48 | [N-]=[N+]=NCC(=O)Nc1ccc(Cl)c(-c2nc3cc(Cl)ccc3o2)c1 | inactive | 0.17 µM |  |  | 
49 | CC#CCOC(=O)Nc1ccc(Cl)c(-c2nc3cc(Cl)ccc3o2)c1 | inactive | 0.075 µM |  |  | 
50 | C#CCOC(=O)Nc1ccc(Cl)c(-c2nc3cc(C(F)(F)F)ccc3[nH]2)c1 | inactive | 5.2 µM |  |  | 
51 | COC(=O)Nc1ccc(C)c(-c2nc3cc(Cl)ccc3o2)c1 | inactive | 0.55 µM |  |  | 
52 | C#CCOC(=O)Nc1ccc(Cl)c(-c2nc3cc(O)ccc3o2)c1 | inactive | 2 µM |  |  | 
53 | CN(C)CC(=O)Nc1ccc(Cl)c(-c2nc3cc(Cl)ccc3o2)c1 | inactive | > 5 µM |  |  | 
54 | C#CCOC(=O)Nc1ccc(Cl)c(-c2nc3cc(C(F)(F)F)ccc3s2)c1 | inactive |  | 20 µM |  | 40 µM
55 | COC(=O)Nc1ccc(Cl)c(-c2nc3ccc(C)cc3n2C)c1 | inactive | > 20 µM |  |  | 
56 | C#CCOC(=O)Nc1ccc(Cl)c(-c2nc3cc(Cl)ccc3s2)c1 | inactive |  | > 50 µM | > 50 µM | 
57 | COC(=O)Nc1cccc(-c2nc3cc(C)ccc3o2)c1 | inactive | > 64 µM |  |  | 
58 | COC(=O)Nc1ccc(Cl)c(-c2nc3c(C)cccc3o2)c1 | inactive | 0.5 µM |  |  | 
59 | C#CCOC(=O)Nc1ccc(Cl)c(-c2nc3c(C)cccc3o2)c1 | inactive |  |  |  | 
60 | COC(=O)Nc1ccc(OC)c(-c2nc3cc(C)ccc3o2)c1 | inactive | 64 µM |  |  | 
61 | C#CCOC(=O)Nc1ccc(Cl)c(-c2nc3cc(C(F)(F)F)ccc3n2C)c1 | inactive | 0.12 µM |  |  | 
62 | C#CCOC(=O)Nc1ccc(Cl)c(-c2nc3cc(Cl)ccc3o2)c1 | inactive |  | 50 µM | 15 µM | 
63 | N#CCC(=O)Nc1ccc(Cl)c(-c2nc3cc(Cl)ccc3s2)c1 | inactive |  |  |  | 
64 | Cc1cc(-c2nc3ccccc3s2)ccc1N |  | > 40 µM |  |  | 
